The target of experiment [1] is T1, Hexokinase HKDC1 (Homo sapiens, UniProt Q2TB90).
T1 sequence (Q2TB90 whole entry): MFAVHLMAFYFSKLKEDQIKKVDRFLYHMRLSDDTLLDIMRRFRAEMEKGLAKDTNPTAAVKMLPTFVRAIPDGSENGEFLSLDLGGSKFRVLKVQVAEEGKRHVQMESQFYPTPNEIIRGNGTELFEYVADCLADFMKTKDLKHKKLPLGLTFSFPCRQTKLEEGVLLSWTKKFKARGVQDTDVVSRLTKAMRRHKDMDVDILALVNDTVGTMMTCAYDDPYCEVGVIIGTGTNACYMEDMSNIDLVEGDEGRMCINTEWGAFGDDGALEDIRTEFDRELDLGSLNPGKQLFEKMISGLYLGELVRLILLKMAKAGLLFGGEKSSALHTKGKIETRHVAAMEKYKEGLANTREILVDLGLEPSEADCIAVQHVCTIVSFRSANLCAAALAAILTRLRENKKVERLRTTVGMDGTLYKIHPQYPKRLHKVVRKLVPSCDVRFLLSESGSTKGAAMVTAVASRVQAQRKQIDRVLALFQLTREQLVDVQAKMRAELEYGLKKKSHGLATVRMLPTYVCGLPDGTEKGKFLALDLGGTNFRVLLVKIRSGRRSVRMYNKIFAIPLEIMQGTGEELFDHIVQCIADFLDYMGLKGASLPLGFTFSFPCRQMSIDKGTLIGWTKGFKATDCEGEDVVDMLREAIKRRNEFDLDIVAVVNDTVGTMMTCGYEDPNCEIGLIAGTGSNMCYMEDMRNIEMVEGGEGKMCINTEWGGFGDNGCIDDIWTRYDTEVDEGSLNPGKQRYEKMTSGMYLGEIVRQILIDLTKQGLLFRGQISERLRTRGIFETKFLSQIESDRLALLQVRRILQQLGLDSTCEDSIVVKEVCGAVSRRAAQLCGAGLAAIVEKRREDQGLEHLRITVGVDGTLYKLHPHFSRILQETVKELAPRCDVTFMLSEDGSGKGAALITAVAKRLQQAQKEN
As to the kind of experiment: HKDC1 hexokinase inhibitors, dose response, biochemical, W721R variant (AID 504729). It counts as functional.

The target in experiment [2] is T2, Apoptotic protease-activating factor 1 (Homo sapiens, UniProt O14727).
T2 sequence (O14727 whole entry): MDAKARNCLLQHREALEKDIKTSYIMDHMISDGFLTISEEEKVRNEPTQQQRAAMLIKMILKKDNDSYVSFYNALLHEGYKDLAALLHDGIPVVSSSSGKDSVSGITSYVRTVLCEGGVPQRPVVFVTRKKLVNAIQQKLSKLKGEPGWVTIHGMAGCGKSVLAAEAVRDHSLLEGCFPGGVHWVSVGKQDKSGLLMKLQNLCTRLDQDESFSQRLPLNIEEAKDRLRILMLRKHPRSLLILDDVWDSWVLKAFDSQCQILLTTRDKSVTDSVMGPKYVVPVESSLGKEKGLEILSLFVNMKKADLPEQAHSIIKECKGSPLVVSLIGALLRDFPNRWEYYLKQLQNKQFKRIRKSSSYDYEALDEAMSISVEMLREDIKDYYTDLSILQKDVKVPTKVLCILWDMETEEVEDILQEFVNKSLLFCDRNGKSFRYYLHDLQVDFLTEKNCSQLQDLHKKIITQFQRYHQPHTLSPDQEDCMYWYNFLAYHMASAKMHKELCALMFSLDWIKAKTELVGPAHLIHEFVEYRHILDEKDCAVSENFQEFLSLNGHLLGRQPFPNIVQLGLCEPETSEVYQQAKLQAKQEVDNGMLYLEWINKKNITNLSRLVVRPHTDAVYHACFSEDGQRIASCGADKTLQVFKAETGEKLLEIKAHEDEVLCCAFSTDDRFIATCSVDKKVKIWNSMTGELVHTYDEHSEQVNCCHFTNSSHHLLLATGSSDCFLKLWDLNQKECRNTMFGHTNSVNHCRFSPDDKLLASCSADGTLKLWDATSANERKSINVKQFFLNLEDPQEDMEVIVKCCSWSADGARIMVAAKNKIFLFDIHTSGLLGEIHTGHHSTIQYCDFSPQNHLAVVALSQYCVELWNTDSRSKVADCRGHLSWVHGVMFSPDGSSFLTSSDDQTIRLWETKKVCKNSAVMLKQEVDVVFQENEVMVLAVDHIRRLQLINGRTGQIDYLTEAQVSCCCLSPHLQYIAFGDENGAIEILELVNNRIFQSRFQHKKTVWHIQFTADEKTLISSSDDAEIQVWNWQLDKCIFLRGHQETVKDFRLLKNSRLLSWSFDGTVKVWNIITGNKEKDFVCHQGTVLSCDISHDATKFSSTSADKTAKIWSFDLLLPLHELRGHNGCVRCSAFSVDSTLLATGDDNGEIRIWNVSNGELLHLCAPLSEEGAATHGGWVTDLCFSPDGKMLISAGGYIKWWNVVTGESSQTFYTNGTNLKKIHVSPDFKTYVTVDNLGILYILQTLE
Type of experiment: functional.

The nature of experiment [3]: Luminescence Cell-Based Dose Response HTS to Identify Inhibitors of 5'UTR Stem-Loop Driven Prion Protein mRNA Translation in H4 Neuroglioblastoma Cells. [Related pubchem assays: 1827 (Project Summary), 1813 (Primary HTS)]. Type of experiment: functional.
The nature of experiment [4]: inhibitors of SNCA 5'UTR-driven reporter translation, confirmation, H4 neuroglioma cells, luminescence (AID 1988). Type of experiment: functional, cell-based.
A short description of experiment [5]: inhibitors of firefly luciferase expression or activity, dose response, H4 neuroglioma cells, luminescence (AID 1990). It counts as functional, cell-based.
Experiment [6] has as its target Mitogen-activated protein kinase 12 (Homo sapiens, UniProt P53778). Type of experiment: functional.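 Note: measured as one member of a kinome-wide kinase profiling panel.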
Experiment [7] addresses Ribosomal protein S6 kinase alpha-3 (Homo sapiens, UniProt P51812). Type of experiment: functional.
The target in experiment [8] is Serine/threonine-protein kinase Nek4 (Homo sapiens, UniProt P51957). Type of experiment: functional.

This is an account of results in ChEMBL document CHEMBL1201862, “PubChem BioAssay data set” (2004).

Activity calls are given as the source filed them.

Ribosomal protein S6 kinase alpha-3, sequence (P51812 whole entry): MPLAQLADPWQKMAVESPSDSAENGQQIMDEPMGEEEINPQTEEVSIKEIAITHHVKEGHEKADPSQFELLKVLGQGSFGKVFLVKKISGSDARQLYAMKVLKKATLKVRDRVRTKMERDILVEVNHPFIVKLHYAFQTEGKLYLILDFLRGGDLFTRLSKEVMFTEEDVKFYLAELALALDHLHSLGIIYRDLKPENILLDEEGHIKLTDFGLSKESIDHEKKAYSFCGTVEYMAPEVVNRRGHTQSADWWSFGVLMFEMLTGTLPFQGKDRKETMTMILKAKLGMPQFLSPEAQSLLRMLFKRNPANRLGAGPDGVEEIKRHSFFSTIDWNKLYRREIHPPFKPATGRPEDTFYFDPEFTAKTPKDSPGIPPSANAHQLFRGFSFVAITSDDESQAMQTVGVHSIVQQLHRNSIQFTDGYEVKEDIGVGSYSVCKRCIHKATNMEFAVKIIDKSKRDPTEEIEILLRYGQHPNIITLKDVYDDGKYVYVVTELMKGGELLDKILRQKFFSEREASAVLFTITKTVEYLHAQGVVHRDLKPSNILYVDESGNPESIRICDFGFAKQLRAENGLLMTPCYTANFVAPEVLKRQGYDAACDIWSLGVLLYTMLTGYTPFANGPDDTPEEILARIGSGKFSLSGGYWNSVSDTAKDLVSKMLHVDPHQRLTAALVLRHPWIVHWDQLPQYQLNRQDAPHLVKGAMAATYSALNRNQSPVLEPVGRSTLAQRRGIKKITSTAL
Serine/threonine-protein kinase Nek4, sequence (P51957 whole entry): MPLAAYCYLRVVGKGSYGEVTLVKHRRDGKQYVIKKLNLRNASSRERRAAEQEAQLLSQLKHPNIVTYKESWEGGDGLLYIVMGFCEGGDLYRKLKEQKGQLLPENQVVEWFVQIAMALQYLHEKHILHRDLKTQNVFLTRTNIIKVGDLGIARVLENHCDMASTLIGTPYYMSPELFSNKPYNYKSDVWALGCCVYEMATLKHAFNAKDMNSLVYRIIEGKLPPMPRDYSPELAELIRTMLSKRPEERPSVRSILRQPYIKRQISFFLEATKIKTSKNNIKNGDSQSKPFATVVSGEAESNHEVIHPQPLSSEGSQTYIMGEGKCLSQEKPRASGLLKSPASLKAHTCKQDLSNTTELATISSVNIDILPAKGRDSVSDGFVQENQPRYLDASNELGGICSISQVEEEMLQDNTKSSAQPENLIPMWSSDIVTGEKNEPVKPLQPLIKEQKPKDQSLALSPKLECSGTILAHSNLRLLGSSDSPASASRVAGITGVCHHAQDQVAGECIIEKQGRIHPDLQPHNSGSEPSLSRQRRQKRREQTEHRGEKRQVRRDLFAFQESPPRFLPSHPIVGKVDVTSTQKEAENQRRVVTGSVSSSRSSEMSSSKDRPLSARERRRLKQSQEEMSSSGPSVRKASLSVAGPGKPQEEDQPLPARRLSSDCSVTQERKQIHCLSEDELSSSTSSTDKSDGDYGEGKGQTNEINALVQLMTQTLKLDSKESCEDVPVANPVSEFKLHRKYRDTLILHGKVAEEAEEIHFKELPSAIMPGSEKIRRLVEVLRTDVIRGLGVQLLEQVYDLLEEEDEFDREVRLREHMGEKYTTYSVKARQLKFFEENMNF
Mitogen-activated protein kinase 12, sequence (P53778 whole entry): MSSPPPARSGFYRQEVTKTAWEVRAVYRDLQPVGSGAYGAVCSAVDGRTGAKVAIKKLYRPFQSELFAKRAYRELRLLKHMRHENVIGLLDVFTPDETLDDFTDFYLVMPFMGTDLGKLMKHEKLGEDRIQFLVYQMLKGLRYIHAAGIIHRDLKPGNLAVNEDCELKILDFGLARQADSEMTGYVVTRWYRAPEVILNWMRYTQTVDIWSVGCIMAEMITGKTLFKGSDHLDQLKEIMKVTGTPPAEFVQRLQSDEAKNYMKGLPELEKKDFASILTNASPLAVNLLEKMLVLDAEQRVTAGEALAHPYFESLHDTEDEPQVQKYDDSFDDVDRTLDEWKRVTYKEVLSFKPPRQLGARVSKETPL

On to `CC(=O)NC1C(=O)N(CCN2CCOCC2)c2ccc(F)cc21` (stereo not drawn), for which, in experiment [1], the IC50 (as a rule, the midpoint of a concentration-inhibition curve) is 9.43 µM (active).

As to `O=C1C=C(N2CCCCC2)c2ccccc2C1=O`, the values for the IC50 in experiment [1] and in experiment [2] were 1.34 µM (active) and 2.12 µM (active), respectively. For the same molecule, the results for the 50% effective concentration (EC50) in experiment [3], in experiment [4] and in experiment [5] were 8.27 µM (active), 9.02 µM (active) and > 120 µM (not active), respectively.

Consider `O=C(CCc1ccccc1)NNc1cc(N2CCCCC2)nc(N2CCCCC2)n1`, for which, in experiment [2], the IC50 was 3.62 µM (active). Also, the EC50 in experiment [3], in experiment [4] and in experiment [5] was > 120 µM (not active) throughout.

In the case of `Cc1n[nH]c2ccc(-c3cncc(OCC(N)Cc4cccc(Cl)c4)c3)cc12` (stereo not drawn), the Ki – broadly, a dissociation constant, usually derived from enzyme kinetics or from competition with a known ligand – was 0.398 µM (active) in experiment [6], 0.0158 µM (active) in experiment [7] and 0.251 µM (active) in experiment [8].
